The structures appear in SMILES notation. ≈ marks a conversion by molar mass, not a printed value. Some results are limits rather than exact numbers.

For orientation: kinetic solubility means the concentration staying in solution when a stock, usually in DMSO, is diluted into the medium.

The conditions of this data set: buffer; pH 7.4; 200.0 µM.
For `NS(=O)(=O)c1ccc(CCNC(=O)c2ccc(-c3ccccc3)cc2)cc1`, the kinetic solubility is under 0.4 µg/mL.

`COc1cccc(CNC(=O)CCNC(=O)c2ccccc2OC)c1` returned a solubility (kinetic) of over 51.4 µg/mL.

For the compound `CCN(CC(=O)Nc1ccccc1Br)C1CCCCC1`, the kinetic solubility came to 9.1 µg/mL (≈ 26.8 µM).

As to `Cc1ccc(-n2c(C)c([N+](=O)[O-])c3ccc(O)cc32)cc1`, the solubility (kinetic) was determined as 0.4 µg/mL (≈ 1.42 µM).

Compound `CCCC(=O)Nc1cc(C)cn(Cc2c(F)cccc2Cl)c1=O` gave a kinetic solubility of 41.3 µg/mL (≈ 123 µM). This solubility kinetic is about 100-fold higher than that of the compound before.

For `O=C(NCCc1ccc(O)c(O)c1)C1COc2ccccc2O1` (stereo not given), the solubility (kinetic) is over 47.3 µg/mL.

On to `c1ccc(N2CCN(c3nc4ccccc4[nH]3)CC2)nc1`, for which the solubility (kinetic) is 41.7 µg/mL (≈ 149 µM).

`CC(C)OCCCNC(=O)C1CCN(S(=O)(=O)N2CCCC2)CC1` had a solubility (kinetic) of over 54.2 µg/mL.

As for `Cc1cc(C)cc(NC(=O)CN2CCN(c3ccccn3)CC2)c1`, the solubility (kinetic) was 2.8 µg/mL (≈ 8.63 µM).

For the compound `Clc1ccccc1OCCCOc1cccc2cccnc12`, the solubility (kinetic) was found to be 3.9 µg/mL (≈ 12.4 µM).

`Cc1nc(N2CCOCC2)nc(N2CCC(C)CC2)c1[N+](=O)[O-]` displayed a solubility (kinetic) of 12.6 µg/mL (≈ 39.2 µM).

With `CC(=O)Nc1ccc(S(=O)(=O)NC2CCS(=O)(=O)C2)cc1Cl` (stereo not given), the kinetic solubility worked out at 23.8 µg/mL (≈ 64.9 µM).

Compound `COc1ccc(OC)c2sc(N(CCN(C)C)C(=O)c3ccc4ccccc4c3)nc12.Cl` gave a solubility (kinetic) of 8.6 µg/mL.

As to `CC(=O)c1sc(Nc2cccc3ccccc23)nc1C.Cl`, the solubility (kinetic) was 5.2 µg/mL.

For `O=C(O)CC(NC(=O)C12CC3CC(CC(C3)C1)C2)c1cccc([N+](=O)[O-])c1` (stereo not given), the kinetic solubility was over 55.9 µg/mL.

With `O=C(CNS(=O)(=O)c1ccc(F)c(Cl)c1)N1CCCC1`, the kinetic solubility was found to be 44.1 µg/mL (≈ 137 µM).

The compound `O=C(CN1CCCCCC1)NCc1ccccc1` had a solubility (kinetic) of 34.8 µg/mL (≈ 141 µM).

The compound `CCOc1ccccc1NC(=O)c1nc(-c2ccccc2)oc1C` returned a solubility (kinetic) of 0.9 µg/mL (≈ 2.79 µM).

Turning to `COc1ccc(C(=O)NCCn2cc(SCC(N)=O)c3ccccc32)cc1`, the solubility (kinetic) was 50.6 µg/mL (≈ 132 µM).

As to `CCN1C(=O)CC(N2CCN(c3cccc(OC)c3)CC2)C1=O` (stereo not given), the kinetic solubility is over 47.6 µg/mL.

In turn, `Cn1c(C2CCCCC2)nc2cc(N)ccc21` had a solubility (kinetic) of over 34.4 µg/mL.

Take `O=C(COC(=O)c1ccccc1F)NCc1ccc2c(c1)OCO2`: the kinetic solubility came out at 18.1 µg/mL (≈ 54.6 µM).

The compound `Cl.O=C(CCN1CCOCC1)NNC(=O)c1ccc(Cl)c([N+](=O)[O-])c1` came in with a kinetic solubility of over 59 µg/mL.

`CC(=O)N1CCN(C(=O)CSc2ncnc3sc(C)c(C)c23)CC1` gave a solubility (kinetic) of over 54.7 µg/mL.

As to `O=C(NC1CC2CCCC(C1)N2Cc1ccccc1)C1CCCCC1` (stereo not given), the solubility (kinetic) was over 51.1 µg/mL.

`Cc1cc(OCC(=O)Nc2ccncc2)cc(C)c1Cl` showed a kinetic solubility of 2.9 µg/mL (≈ 9.97 µM).

Consider `CCN(CC(=O)N1CCCC1)S(=O)(=O)c1ccc(F)cc1`, for which the solubility (kinetic) was 44.1 µg/mL (≈ 140 µM).

In turn, `O=[N+]([O-])c1cnccc1Nc1ccc(Cl)cc1` registered a solubility (kinetic) of 16.6 µg/mL (≈ 66.5 µM). This solubility kinetic lies about 2.7-fold lower than the previous one.

As for `Cc1cccc(NC(=O)CN(C)C(=O)c2ccc(N3CCCCCC3)c([N+](=O)[O-])c2)c1C`, the kinetic solubility turned out to be 11.4 µg/mL (≈ 26 µM).

`Cc1cccc(Nc2nnc(SCC(=O)NCC3CCCO3)s2)c1C` (stereo not given) registered a kinetic solubility of over 56.8 µg/mL.

Turning to `Cc1ccc(N(CCO)C(=S)Nc2ccccc2)cc1`, the solubility (kinetic) was over 43 µg/mL.

`CCc1noc(C)c1C(=O)NCCc1ccc(S(N)(=O)=O)cc1` displayed a solubility (kinetic) of over 50.6 µg/mL.

For `Oc1ccc(Nc2nc(-c3ccccc3O)nc3ccccc23)cc1`, the kinetic solubility is 2.1 µg/mL (≈ 6.38 µM).

`COc1ccc(CNC(=O)N2CCc3ccccc3C2)cc1` showed a kinetic solubility of over 44.5 µg/mL.

Regarding `CC(Sc1ccccn1)C(=O)NC1CCCC1` (stereo not given), the kinetic solubility is over 37.6 µg/mL.

Compound `COc1ccc(-c2csc(Nc3ccc(C)cn3)n2)cc1OC` registered a kinetic solubility of 1.3 µg/mL (≈ 3.97 µM).

In turn, `CN1C(=O)/C(=C/C=C2\SCCN2C)OC1=S` showed a kinetic solubility of 4.4 µg/mL (≈ 17.2 µM).

`O=C(Nc1nccs1)c1ccc(Br)cc1`: the solubility (kinetic) is 2.2 µg/mL (≈ 7.77 µM).

Regarding `Cc1ccc(OCC(=O)NCc2ccco2)c([N+](=O)[O-])n1`, the solubility (kinetic) came to 37.3 µg/mL (≈ 128 µM).

Regarding `COC(=O)c1cc2ccccc2n1Cc1ccc(Cl)nc1`, the kinetic solubility amounted to 1.5 µg/mL (≈ 4.99 µM).

As to `Cc1ccc(C)c(C(C)NC(=O)c2ccc(Br)o2)c1` (stereo not given), the solubility (kinetic) worked out at 42.1 µg/mL (≈ 131 µM).

In turn, `O=C1CC(NC(=O)C(F)(F)F)c2cc3c(cc21)OCO3` (stereo not given) displayed a solubility (kinetic) of 42.3 µg/mL (≈ 147 µM).

`COc1ccccc1NC(=O)/C=C1\NC(=O)CS1` showed a kinetic solubility of over 39.6 µg/mL.

For `Cc1c(C)c(C)c2[nH]c(=S)[nH]c2c1C`, the kinetic solubility stood at 0.4 µg/mL (≈ 1.94 µM).

`COc1ccc2[nH]c(=O)c(C(=O)O)cc2c1` registered a solubility (kinetic) of over 32.9 µg/mL.

Take `CCCNc1ncnc2onc(C)c12`: the kinetic solubility is 22.5 µg/mL (≈ 117 µM).

Consider `N#CC1=C(N)Oc2cc(N)ccc2C1c1ccccc1F` (stereo not given), for which the kinetic solubility came to 4.9 µg/mL (≈ 17.4 µM). This solubility kinetic lies about 4.6-fold lower than the previous one.

The compound `Nc1nc(Nc2ccc(Cl)cc2)nc(NCc2ccco2)c1[N+](=O)[O-]` came in with a solubility (kinetic) of 1 µg/mL (≈ 2.77 µM).

The compound `COc1nc(N(C)C)nc(N(C#N)S(=O)(=O)c2ccc(C)cc2)n1` registered a kinetic solubility of 51.7 µg/mL (≈ 148 µM). Compared with the last compound, the solubility kinetic is about 52-fold higher.

`Cc1cc(C)c2cc(C(=O)Nc3ccc(C)c(F)c3)[nH]c2c1` gave a solubility (kinetic) of 0.8 µg/mL (≈ 2.7 µM).

The values above are taken from PubChem BioAssay AID1996.
